Literature values, collected in paper PMC6050274, “Buparlisib is a brain penetrable pan-PI3K inhibitor” (Scientific Reports, 2018).

Details: cited from earlier work

SMILES | brain-plasma ratio
COC1(c2sc3c(N4CCOCC4)nc(-c4cnc(N)nc4)nc3c2C)COC1 [GNE-317] | ≤ 1
Cn1c(=O)n(-c2ccc(C(C)(C)C#N)cc2)c2c3cc(-c4cnc5ccccc5c4)ccc3ncc21 [NVP-BEZ235] | ≤ 1
FC(F)c1nc2ccccc2n1-c1nc(N2CCOCC2)nc(N2CCOCC2)n1 [ZSTK474] | ≤ 1
